The pKd is −log10 of the Kd, conventionally taken in molar units.

pKd: −log10 of the molar value.

The target of assay [1] is T1, Myd88 CRAC domain (Mus musculus, UniProt P22366).
T1 construct: CRAC-A Tyr187, CRAC-B Tyr227
The experiment in a line: NBD-cholesterol fluorescence binding assay. To be noted: labelled compound; paper words the KD as that of cholesterol; NBD position (22- or 25-) not told.

Assay [2] has as its target 3H-cholesterol. The experiment in a line: 3H-cholesterol binding to recombinant GST-tagged protein; GST-Myd88 recovered and radioactivity measured. To be noted: 3H-cholesterol 10 μM; n = 3; mean ± SD; parent: est. 3900; read off a plot.

T1 sequence (P22366 whole entry, the tested form may be a part): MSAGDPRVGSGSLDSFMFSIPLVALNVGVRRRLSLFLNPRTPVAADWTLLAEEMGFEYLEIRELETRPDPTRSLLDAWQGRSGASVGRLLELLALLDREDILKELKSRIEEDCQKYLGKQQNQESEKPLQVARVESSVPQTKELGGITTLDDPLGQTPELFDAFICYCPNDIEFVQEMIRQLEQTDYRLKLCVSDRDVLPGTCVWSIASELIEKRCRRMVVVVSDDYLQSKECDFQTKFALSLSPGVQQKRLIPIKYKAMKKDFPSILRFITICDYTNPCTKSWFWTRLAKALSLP

In assay [1], `C[C@H](CNc1ccc([N+](=O)[O-])c2nonc12)[C@H]1CC[C@H]2[C@@H]3CC=C4C[C@@H](O)CC[C@]4(C)[C@H]3CC[C@]12C` [NBD-cholesterol] gave a pKd of 4.85.

Take “GST-tagged mouse Myd88 (from UniProt P22366) Y227F”: in assay [2], the response amounted to 1900 CPM.

These data come from paper PMC9746817, “Activated cholesterol metabolism is integral for innate macrophage responses by amplifying Myd88 signaling” (JCI Insight, 2022).
